From patent publication US20220402874A1, “SOLID FORMS OF OMECAMTIV MECARBIL DIHYDROCHLORIDE AND PROCESSES THEREOF” (DR. REDDY'S LABORATORIES LIMITED, priority 2019, published 2022)
Counter-ions that a name gives are not always drawn.

How the values were obtained:
[1] = storage stability of the solid form in a closed container (PXRD); format: physicochemical
Method: Further, the premix of amorphous solid dispersion with Soluplus is also unstable as depicted in FIG. 8.
In another aspect, the present application provides a crystalline Form OMT-D of Omecamtiv mecarbil dihydrochloride, characterized by a PXRD pattern comprising the peaks at about 12.98, 15.79, 18.55 and 25.63°±0.2° 2θ. In embodiments, the crystalline Form OMT-D of Omecamtiv mecarbil dihydrochloride is characterized by an additional peak at about 20.41°±0.2° 2θ. In embodiments, the application provides crystalline Form OMT-D of Omecamtiv mecarbil dihydrochloride, characterized by a PXRD pattern of FIG. 14. In embodiments, crystalline Form OMT-D of Omecamtiv mecarbil dihydrochloride is a solvate with dimethyl sulfoxide. In embodiments, crystalline Form OMT-D is monosolvate with dimethyl sulfoxide. In embodiments, crystalline Form OMT-D is stable for atleast 45 days stored in a closed container. In embodiments, the crystalline Form OMT-D is characterized by a thermogram of FIG. 16.

[2] = described in the '270 application; cited from earlier work

Structure (SMILES): COC(=O)N1CCN(Cc2cccc(NC(=O)Nc3ccc(C)nc3)c2F)CC1 [Form OMT-D, Omecamtiv mecarbil dihydrochloride]
- stable for at least (time stored) ([1]; stored in a closed container): ≥ 45 days

Structure (SMILES): COC(=O)N1CCN(Cc2cccc(NC(=O)Nc3ccc(C)nc3)c2F)CC1 [Omecamtiv mecarbil dihydrochloride]
- stability of amorphous state (result in words) ([1]; as depicted by PXRD in FIG. 5 / FIG. 8): unstable

Structure (SMILES): COC(=O)N1CCN(Cc2cccc(NC(=O)Nc3ccc(C)nc3)c2F)CC1 [anhydrous form B, Omecamtiv mecarbil dihydrochloride]
- stability of crystalline form (result in words) [2]: metastable
